≈ marks a conversion by molar mass, not a printed value. Calls of active or inactive are those of the source. The rule behind the calls is not given here.
Test system: Mycobacterium intracellulare
Assay: Antimycobacterial activity against Mycobacterium intracellular ATCC 23068 after 48 hrs
Type: functional
Settings: for MIC: ATCC 23068, 48 h

Structure (SMILES) | Activity | MIC
CC(C)=C[C@H]1C[C@](C)(O)[C@@H]2[C@H]3CC[C@@H]4[C@@]5(C)CC[C@H](O[C@@H]6OC[C@H](O)[C@H](O[C@@H]7O[C@H](CO)[C@@H](O)[C@H](O)[C@H]7O)[C@H]6O[C@@H]6O[C@@H](CO)[C@H](O)[C@H]6O)C(C)(C)[C@@H]5CC[C@@]4(C)[C@@]34CO[C@@]2(C4)O1 | inactive | 
CC(C)=C[C@H]1C[C@](C)(O)[C@@H]2[C@H]3CC[C@@H]4[C@@]5(C)CC[C@H](O[C@@H]6OC[C@H](O)[C@H](O[C@@H]7O[C@H](CO)[C@@H](O)[C@H](OC(=O)/C=C/c8ccc(O)cc8)[C@H]7O)[C@H]6O[C@@H]6O[C@@H](CO)[C@H](O)[C@H]6O)C(C)(C)[C@@H]5CC[C@@]4(C)[C@@]34CO[C@@]2(C4)O1 |  | 10 µg/mL (≈ 9.57 µM)
CO[C@H]1/C=C/O[C@@]2(C)Oc3c(C)c(O)c4c(O)c(c(/C=N/N5CCN(C)CC5)c(O)c4c3C2=O)NC(=O)/C(C)=C\C=C\[C@H](C)[C@H](O)[C@@H](C)[C@@H](O)[C@@H](C)[C@H](OC(C)=O)[C@@H]1C [RIFAMPIN] |  | 0.3 µg/mL (≈ 0.365 µM)
CC(C)=C[C@H]1C[C@](C)(O)[C@@H]2[C@H]3CC[C@@H]4[C@@]5(C)CC[C@H](O[C@@H]6OC[C@H](O)[C@H](O[C@@H]7O[C@H](CO)[C@@H](O)[C@H](O)[C@H]7OC(=O)/C=C/c7ccc(O)cc7)[C@H]6O[C@@H]6O[C@@H](CO)[C@H](O)[C@H]6O)C(C)(C)[C@@H]5CC[C@@]4(C)[C@@]34CO[C@@]2(C4)O1 |  | 50 µg/mL (≈ 47.8 µM)

— ChEMBL document CHEMBL1144118, “New antimycobacterial saponin from Colubrina retusa” (1999)
